According to ChEMBL document CHEMBL3045245, “Synthesis and antitumor activities of certain novel 2-amino-9-(4-halostyryl)-4H-pyrano[3,2-h]quinoline derivatives” (Med Chem Res, 2012):
Values after ≈ are worked out from the molar mass of the structure shown.

Assays:
[1] = Cytotoxicity against Homo sapiens (human) HCT cells assessed as cell viability at 6.25 ug/ml after 48 hr by MTT assay; assay type: functional; details: read-out: Activity
HepG2 [2] = test: Cytotoxicity against Homo sapiens (human) HepG2 cells assessed as cell viability at 1.56 ug/ml after 48 hr by MTT assay; assay type: functional; details: HepG2, 48 h, read-out: Activity
HepG2 [3] = test: Cytotoxicity against Homo sapiens (human) HepG2 cells assessed as cell viability at 12.5 ug/ml after 48 hr by MTT assay; assay type: functional; details: HepG2, 48 h, read-out: Activity
HepG2 [4] = test: Cytotoxicity against Homo sapiens (human) HepG2 cells assessed as cell viability at 50 ug/ml after 48 hr by MTT assay; assay type: functional; details: HepG2, 48 h, read-out: Activity
[5] = Cytotoxicity against Homo sapiens (human) HCT cells assessed as cell viability at 12.5 ug/ml after 48 hr by MTT assay; assay type: functional; details: read-out: Activity
MCF7 [6] = test: Cytotoxicity against Homo sapiens (human) MCF7 cells assessed as cell viability at 25 ug/ml after 48 hr by MTT assay; assay type: functional; details: MCF7, 48 h, read-out: Activity
[7] = Cytotoxicity against Homo sapiens (human) HCT cells assessed as cell viability at 1.56 ug/ml after 48 hr by MTT assay; assay type: functional; details: read-out: Activity
HepG2 [8] = test: Cytotoxicity against Homo sapiens (human) HepG2 cells assessed as cell viability at 25 ug/ml after 48 hr by MTT assay; assay type: functional; details: HepG2, 48 h, read-out: Activity
MCF7 [9] = test: Cytotoxicity against Homo sapiens (human) MCF7 cells assessed as cell viability at 6.25 ug/ml after 48 hr by MTT assay; assay type: functional; details: MCF7, 48 h, read-out: Activity
HepG2 [10] = test: Cytotoxicity against Homo sapiens (human) HepG2 cells assessed as cell viability at 6.25 ug/ml after 48 hr by MTT assay; assay type: functional; details: HepG2, 48 h, read-out: Activity
[11] = Cytotoxicity against Homo sapiens (human) HCT cells assessed as cell viability at 25 ug/ml after 48 hr by MTT assay; assay type: functional; details: read-out: Activity
MCF7 [12] = test: Cytotoxicity against Homo sapiens (human) MCF7 cells assessed as cell viability at 1.56 ug/ml after 48 hr by MTT assay; assay type: functional; details: MCF7, 48 h, read-out: Activity
MCF7 [13] = test: Cytotoxicity against Homo sapiens (human) MCF7 cells assessed as cell viability at 12.5 ug/ml after 48 hr by MTT assay; assay type: functional; details: MCF7, 48 h, read-out: Activity
[14] = Cytotoxicity against Homo sapiens (human) HCT cells after 48 hr by MTT assay; assay type: functional, cell-based
MCF7 [15] = test: Cytotoxicity against Homo sapiens (human) MCF7 cells after 48 hr by MTT assay; assay type: functional, cell-based; details: MCF7, 48 h
[16] = Cytotoxicity against Homo sapiens (human) HCT cells assessed as cell viability at 3.125 ug/ml after 48 hr by MTT assay; assay type: functional; details: read-out: Activity
HepG2 [17] = test: Cytotoxicity against Homo sapiens (human) HepG2 cells assessed as cell viability at 3.125 ug/ml after 48 hr by MTT assay; assay type: functional; details: HepG2, 48 h, read-out: Activity
[18] = Cytotoxicity against Homo sapiens (human) HCT cells assessed as cell viability at 50 ug/ml after 48 hr by MTT assay; assay type: functional; details: read-out: Activity
MCF7 [19] = test: Cytotoxicity against Homo sapiens (human) MCF7 cells assessed as cell viability at 3.125 ug/ml after 48 hr by MTT assay; assay type: functional; details: MCF7, 48 h, read-out: Activity
HepG2 [20] = test: Cytotoxicity against Homo sapiens (human) HepG2 cells after 48 hr by MTT assay; assay type: functional, cell-based; details: HepG2, 48 h
MCF7 [21] = test: Cytotoxicity against Homo sapiens (human) MCF7 cells assessed as cell viability at 50 ug/ml after 48 hr by MTT assay; assay type: functional; details: MCF7, 48 h, read-out: Activity

Row | SMILES | viability at 6.25 µg/mL [1] | viability at 1.56 µg/mL (HepG2 [2]) | viability at 12.5 µg/mL (HepG2 [3]) | viability at 50 µg/mL (HepG2 [4]) | viability at 12.5 µg/mL [5] | viability at 25 µg/mL (MCF7 [6]) | viability at 1.56 µg/mL [7] | viability at 25 µg/mL (HepG2 [8]) | viability at 6.25 µg/mL (MCF7 [9]) | viability at 6.25 µg/mL (HepG2 [10]) | viability at 25 µg/mL [11] | viability at 1.56 µg/mL (MCF7 [12]) | viability at 12.5 µg/mL (MCF7 [13]) | IC50 [14] | IC50 (MCF7 [15]) | viability at 3.125 µg/mL [16] | viability at 3.125 µg/mL (HepG2 [17]) | viability at 50 µg/mL [18] | viability at 3.125 µg/mL (MCF7 [19]) | IC50 (HepG2 [20]) | other results
1 | CCOC(=O)C1=C(N)Oc2c(ccc3ccc(/C=C/c4ccc(Br)cc4)nc23)C1c1ccc(Cl)cc1 (configuration not stated) | 48.1% | 72.1% | 36.4% | 14.6% | 34.4% | 31% | 72.1% | 22.9% | 45.5% | 39.3% | 24.7% | 69.4% | 41.6% | 6.1 µg/mL (≈ 10.9 µM) | 5.4 µg/mL (≈ 9.61 µM) | 66.2% | 49.6% | 17.6% | 57.9% | 3.1 µg/mL (≈ 5.52 µM) | viability at 50 µg/mL (MCF7 [21]): 25.6%
2 | CC[C@]1(O)C[C@@H]2CN(CCc3c([nH]c4ccccc34)[C@@](C(=O)OC)(c3cc4c(cc3OC)N(C)[C@H]3[C@@](O)(C(=O)OC)[C@H](OC(C)=O)[C@]5(CC)C=CCN6CC[C@]43[C@@H]65)C2)C1 [VINBLASTINE] | 38.1% | 72.1% | 24.2% | 14.4% | 28.2% | 15.2% | 53.4% | 16.1% | 48.8% | 45.1% | 21.7% | 76.2% | 29.6% | 2.6 µg/mL (≈ 3.21 µM) | 6.1 µg/mL (≈ 7.52 µM) | 47.5% | 55% | 16.3% | 60.4% | 4.6 µg/mL (≈ 5.67 µM) | viability at 50 µg/mL (MCF7 [21]): 7.82%
